This assay deals with nicotinic receptors. Description: Nicotinic channel receptor binding: [3H]-cystine binding to crude synaptic membranes from whole rat brain. The conditions noted are these: 1.25 nM [3H-cystine], about 60 min, about 4° C. On the procedure:
Nicotinic Channel Receptor Binding Protocol:
The activity of the compounds claimed herein at the nicotinic receptor can be accomplished by the following assay.
Binding of […] to nicotinic receptors was accomplished using crude synaptic membrane preparations from whole rat brain (Pabreza et al. Molecular Pharmacol., 1990, 39:9). Washed membranes were stored at about -80° C. prior to use. Frozen aliquots were slowly thawed and resuspended in 20 volumes of buffer (containing: […] NaCl, 5 mM KCl, 2 mM MgCl2, 2 mM Tris-Cl, ph 7.4 @4° C.). After centrifuging at 20,000×g for 15 minutes, the pellets were resuspended in about 30 volumes of buffer. Homogenate (containing about 125-150 ug protein) was added to tubes containing concentrations of test compound and [^3 H-cystine] (1.25 nM) in a final volume of 500 uL. Samples were incubated for about 60 minutes at about 4° C., then rapidly filtered through GF/B filters presoaked in 0.5% polyethylimine using 3×4 mL of ice cold buffer. The filters were counted.
For orientation: Ki means a dissociation constant, usually derived from enzyme kinetics or from competition with a known ligand. `Clc1nccnc1O[C@H]1CN2CCC[C@@H]1C2` (relative stereo) [Compound 19, 3-Chloro-2-[endo-(+,-)-6-(1-azabicyclo[3.2.1]octyloxy)]-pyrazine] came in with a Ki of 2780 nM.

The molecule `CCCCSc1nccnc1OCCN(C)C` [Compound 17] showed a Ki of 21400 nM.

`CCCCSc1nccnc1OCC[N+](C)(C)C` [Compound 18, 3-(1-Butylthio)-2-(2-(trimethylamino)ethoxy)pyrazine iodide] gave an inhibition constant (Ki) of 580 nM.

Take `CN(C)CCOc1cnccn1` [Compound 26, 2-(2-Dimethylaminoethoxy)pyrazine]: the inhibition constant Ki stood at 130 nM.

In turn, `C[N+](C)(C)CCOc1cnccn1` [Compound 27, 2-(2-Trimethylaminoethoxy)pyrazine iodide] registered a Ki of 110 nM.

For the origin of these results see patent publication US6194416A, “Heterocyclic compounds and their use” (Eli Lilly and Company, priority 1997, dated 2001).
